The source made the active and inactive calls. The rule behind the calls is not given here.
Experiments:
Type in all cases: nucleic-acid assay
Nucleic Acid [1] = assay: Binding affinity to human telomeric G-quadruplex DNA at 200 uM after 1 hr by ESI-TOF-MS analysis
Nucleic Acid [2] = assay: Binding affinity to human telomeric G-quadruplex DNA assessed as hypochromic effect at 10 uM at pH 7.6 by UV-Vis spectrophotometric analysis
Nucleic Acid [3] = assay: Binding affinity to human telomeric DNA AGGGTTAGGGT at 200 uM after 1 hr by ESI-TOF-MS analysis
Nucleic Acid [4] = assay: Binding affinity to human telomeric G-quadruplex DNA assessed as bathochromic shift at 10 uM at pH 7.6 by UV-Vis spectrophotometric analysis

SMILES | Activity (Nucleic Acid [1]) | Activity (Nucleic Acid [2]) | Activity (Nucleic Acid [3]) | Activity (Nucleic Acid [4])
CC(C)=CC[C@@H](O)C1=CC(=O)c2c(O)ccc(O)c2C1=O | 0% |  |  | 
COc1ccc2cc3[n+](cc2c1OC)CCc1cc2c(cc1-3)OCO2 | 58.9% |  |  | 
CC(C)=CC[C@H](O)C1=CC(=O)c2c(O)ccc(O)c2C1=O | 0% |  |  | 
CC(=O)N[C@H]1[C@H](O[C@H](CC=C(C)C)C2=CC(=O)c3c(O)ccc(O)c3C2=O)O[C@H](CO)[C@@H](O)[C@@H]1O | 47% | 32.8% | 16% | Active
CC(=O)N[C@H]1[C@H](O[C@@H](CC=C(C)C)C2=CC(=O)c3c(O)ccc(O)c3C2=O)O[C@H](CO)[C@@H](O)[C@@H]1O | 39.3% |  |  | 

— ChEMBL document CHEMBL1949616, “Synthesis and human telomeric G-quadruplex DNA-binding activity of glucosaminosides of shikonin/alkannin” (Bioorg Med Chem Lett, 2012)
